SMILES	melting point [°C]
Cc1nc(-c2ccc(Cl)cc2)c(-c2ccc(Cl)cc2Cl)cc1CNS(=O)(=O)c1ccc(C(F)(F)F)cc1	98
Cc1nc(-c2ccc(Cl)cc2)c(-c2ccc(Cl)cc2Cl)cc1CNC(=O)c1cc2ccccc2[nH]1 [Compound 3, N-{[-6-(4-chlorophenyl)-5-(2,4-dichlorophenyl)-2-methylpyridin-3-yl]methyl}-1H-indole-2-carboxamide]	135.5

— patent US20080021070A1, “PYRIDINE DERIVATIVES, PREPARATION AND THERAPEUTIC APPLICATION THEREOF” (SANOFI-AVENTIS, priority 2004, published 2008)
